Results from article PMC9860859, “Design, Development, and Optimisation of Smart Linker Chemistry for Targeted Colonic Delivery—In Vitro Evaluation” (Pharmaceutics, 2023).
Values joined by “and” are separate entries in the source; they are usually repeats but may differ in a detail not shown here. Equal entries are not always repeated. “Also recorded” adds a separate entry of the source.

Legend:
[1] = parameters: method as in PMID 2219958; conditions: cited from earlier work
[2] = parameters: method as in PMID 33979164; conditions: cited from earlier work
[3] = parameters: method as in PMID 33979164; conditions: cited from earlier work; remark: listed apart in the source
[4] = parameters: method as in PMID 33979164; conditions: cited from earlier work; remark: listed apart in the source
[5] = cited from earlier work
[6] = In vitro release of Msl from Msl prodrugs by HPLC in buffers simulating the GIT; format: physicochemical; conditions: for release of Msl: colon-like conditions (pH 6.5); for Msl release / prodrug stability: 37 °C; for prodrug remained intact: simulated upper GIT conditions
Experimental: We chose Msl as a starting point for putting our prodrug concept into practice. […] Therefore, a new methodology was developed in which prodrug 21 was incubated in 1:1 ethanol/buffer and the HPLC analysis was run with UV detection at 310 nm, as detailed in the Supplementary Materials.
Then, the same compound was incubated at pH 7.5 and 6.5 to measure its stability under conditions mimicking the small intestine and colon, respectively. […] We believed that the formaldehyde released after cyclisation of the linker had initiated the side-reaction according to the mechanism described in detail in Supplementary Materials and supported by literature (Scheme S3).

[7] = as above; format: physicochemical; conditions: pH 7.5, 37 °C, over 2 h, water/buffer 1:1, small intestine-like
[8] = In vitro release assay of probes 13–17 by HPLC in buffers simulating the GIT
Experimental: (§1) Test solutions for probes 13–17 were prepared at 25 µM in a 1:1 mixture of ethanol and the respective buffer. Samples were incubated at 37 °C, then analysed by HPLC using an Agilent 1260 Infinity system, with conditions as follows: Agilent ZORBAX Eclipse Plus C18 Rapid Resolution column, 3.5 μm (4.6 × 100 mm), 95 Å pore size; column temperature, 35 °C; injection volume, 2 μL; flow rate, 1.0 mL min^−1; gradient elution from 5–100% solvent B (0.1% TFA in MeCN) in solvent A (0.1% TFA in ultrapure water) over 9 min, then hold for 1 min at 100% B; UV detection at two wavelengths (254 and 214 nm). The total run time was 10 min, and the retention times of the model compounds CTG and DCM-OH were 4.28 and 6.16 min, respectively. The retention times of probes 13–17 were 4.41, 4.53, 4.58, 5.97, and 6.04 min, respectively. Calibration curves of free fluorophore were constructed at pH values of 1.2, 5.0, 6.5, and 7.5 over the concentration range of 10–100 µM. A concentration of 25 μM was selected to run in the assay as it gave a good instrument response at the selected wavelength. The data at each pH value was fitted by linear regression, yielding equations of the form: y = ax ± b, where y is the peak area and x is the corresponding concentration in µM. Furthermore, the correlation coefficient (R^2) was ≥0.999 in each case, confirming the linearity of the method used under the specified conditions.
(§2) Release assays for probes 13–17 were performed in vitro using pH and temperature conditions chosen to simulate the GIT, with analysis by HPLC. We used KCl/HCl buffer (pH 1.2) and acetate buffer (pH 5.0) to simulate the pH of the stomach and the duodenum, respectively, while PBS (pH 7.5) and phosphate buffer (pH 6.5) were used to mimic the pH of the lower small intestine and the colon. The compounds were dissolved in 1:1 ethanol/buffer and incubated at 37 °C. Aliquots were taken at different time points and analysed by HPLC and LC/MS, as described in Section 2.2. […] Thus, the aforementioned compounds were incubated at pH 1.2 for 5 h to test their stability under conditions simulating the stomach. […] Then, the stability of the probes was tested in simulated duodenum conditions for 30–40 min, reflecting the reported transit time in the duodenum [26].

[9] = buffer, pH 5
Experimental: as §1, §2

[10] = Fluorometric assay of the stability of probes 13 and 16 at pH 7.5 and 6.5; format: physicochemical
Excerpt: page 2: 1. Stability of probe 13 at pH 7.5 and 6.5 using the spectrofluorometric assay. Principal: CTG's fluorescence is reversibly quenched or shifted to another wavelength when the phenol group is conjugated to the pH-sensitive linkers. Upon cyclization of the linker and the release of the free phenol, the fluorescence will be restored (on-mode). Fluorescence can be measured to follow the release of the payload, which is the fluorophore itself. The optical properties of the free fluorophore were measured in 50% DMSO/buffer at pHs 7.5, and 6.5. Since the fluorescence- based assay depends on the difference in fluorescence properties between the free fluorophore and its conjugates, the excitation wavelength must be carefully chosen. […] Secondly, the wavelength that gave a reasonable absorbance rather than maximum absorbance should be chosen to avoid exceeding the detector limits. Finally, a long distance between the excitation and emission wavelengths is preferable to minimize the background fluorescence. Accordingly, the in vitro tests were conducted by measuring the fluorescence at 555 nm after excitation of the probes at 500 nm, as this wavelength achieved the previous requirements. […] The microplate was incubated at 37 °C, and the fluorescence (em: 555 nm, ex: 500 nm) was recorded at every time point until the full release of CTG was obtained. […]

[11] = pH 1.2 (KCl/HCl buffer/EtOH 1:1), 5 h, 37 °C, 25 µM, stomach-like

CCOC(=O)OC(C)OC1=C(C(=O)Nc2ccccn2)N(C)S(=O)(=O)c2ccccc21 (centres unmarked) [ampiroxicam]
t½ ([1]; pH 1): ≥ 50 h | t½ (hydrolysis) ([1]; pH 6.0–8.5): ≥ 8 h

CNCCCOC(=O)OCOc1c(-c2ccc(Oc3ccc(OC(F)(F)F)cc3)cc2F)c(C)nc2cc(OC)c(Cl)cc12 [Prodrug 2]
oral bioavailability compared with the parent drug [2]: enhanced oral bioavailability | stability under stomach-like conditions [3]: stable | aqueous solubility compared with the parent drug [4]: improved aqueous solubility

Cc1cc(C(=O)O)ccc1-c1c2ccc(=O)cc-2oc2cc(O)ccc12 [CTG, 4-Carboxy-2-methyl Tokyo Green]
pKa [5]: 4.33

Nc1ccc(O)c(C(=O)O)c1 [Msl, Mesalamine]
pKa of aromatic amino group (–NH3+) [5]: 6 | pKa of carboxylic group (–COOH) [5]: 3 | pKa of phenolic group (–OH) [5]: 13.9

C#CCCCNCCCOC(=O)OCOc1ccc(N)cc1C(=O)O.Cc1ccc(S(=O)(=O)O)cc1.Cc1ccc(S(=O)(=O)O)cc1 [Prodrug 22, 3-Carboxy-4-((((3-(pent-4-yn-1-ylammonio)propoxy)carbonyl)oxy)methoxy)benzeneaminium-di(4-methylbenzenesulfonate)]
release of Msl ([6]; after 48 h): 61–68% and 68% | Msl release / prodrug stability ([6]; pH 1.2, 5 h, stomach-like): fully intact | Msl release / prodrug stability ([6]; pH 5.0, 35 min, duodenum-like): fully intact | prodrug remained intact [6]: 77–80% | Msl payload released [7]: 23.5%

N#CC(C#N)=C1C=C(/C=C/c2ccc(O)cc2)Oc2ccccc21 [DCM-OH, Dicyanomethylene-4H-pyran dye]
pKa [5]: 7.21

C#CCCCNCCCCOC(=O)OCOc1ccc(N)cc1C(=O)O.Cc1ccc(S(=O)(=O)O)cc1.Cc1ccc(S(=O)(=O)O)cc1 [Prodrug 21, 3-Carboxy-4-((((4-(pent-4-yn-1-ylammonio)butoxy)carbonyl)oxy)methoxy)benzeneaminium-di(4-methylbenzenesulfonate)]
release of Msl ([6]; after 24 h): 36% | release of Msl ([6]; after 48 h): 61–68% and 61% | release of Msl ([6]; after 6 d): 93% | Msl release / prodrug stability ([6]; pH 1.2, 5 h, stomach-like): no Msl was released | Msl release / prodrug stability ([6]; pH 5.0, 35 min, duodenum-like): no Msl was released | prodrug remained intact [6]: 77–80% | Msl payload released [7]: 20%

C#CCCCNCCCCOC(=O)OCOc1ccc2c(-c3ccc(C(=O)O)cc3C)c3ccc(=O)cc-3oc2c1.Cl [Probe 15, N-(4-(((((9-(4-Carboxy-2-methylphenyl)-3-oxo-3H-xanthen-6yl)oxy)methoxy)carbonyl)oxy)butyl)pent-4-yn-1-aminium chloride]
half-life at 25 µM ([8]; PBS, pH 7.5): 2.4 ± 0.37 h | half-life at 25 µM ([8]; acetate buffer, pH 5): > 0.583 h | CTG payload released (sustained release) ([8]; colon-like conditions (pH 6.5), over 38 h): > 90% | fluorophore release / stability under stomach-like conditions ([8]; pH 1.2, 37 °C): excellent stability; also recorded: no detectable fluorophore release; also recorded: stable | fluorophore release / stability under duodenum-like conditions ([8]; pH 5.0, 37 °C): excellent stability; also recorded: no detectable fluorophore release; also recorded: stable | half-life at 25 µM ([8]; phosphate buffer, pH 6.5): 13.2 ± 0.54 h | CTG payload protected from being released ([8]; small intestine-like conditions, pH 7.5, 2 h): 60%

C#CCCCNCCCOC(=O)OCOc1ccc(/C=C/C2=CC(=C(C#N)C#N)c3ccccc3O2)cc1.Cl [Probe 17, (E)-N-(3-((((4-(2-(4-(Dicyanomethylene)-4H-chromen-2-yl)vinyl)phenoxy)methoxy)carbonyl)oxy)propyl)pent-4-yn-1-aminium chloride]
half-life at 25 µM ([8]; PBS, pH 7.5): 0.113 ± 0.012 h | half-life at 25 µM ([8]; acetate buffer, pH 5): 16.4 ± 1.52 h | fluorophore release [8, 11]: 0.5% | free fluorophore detected ([8]; pH 5.0 (acetate buffer/EtOH 1:1), at 35 min, 37 °C): 7% | time to full fluorophore release ([8]; pH 6.5, mimicking the colon, 37 °C): 170 min | time to achieve complete fluorophore release ([8]; pH 7.5, small intestine-like, 37 °C): 40 min | half-life at 25 µM ([8]; phosphate buffer, pH 6.5): 0.467 ± 0.0257 h

(E)-N-(3-((((4-(2-(4-(dicyanomethylene)-4H-chromen-2-yl)vinyl)phenoxy)methoxy)carbonyl)oxy)propyl)pent-4-yn-1-aminium chloride [Probe 16]
fluorophore release [8, 11]: 3% | fluorophore release ([8]; pH 5.0 (acetate buffer/EtOH 1:1), 30–40 min, 37 °C, duodenum-like): ~ 66% | half-life [9]: 0.343 ± 0.0035 h | time to conversion to the free fluorophore ([10]; at both pH 6.5 and pH 7.5, buffer/DMSO 1:1, 37 °C): ≤ 3 min | fluorophore release in fluorometric assay ([10]; pH 7.5 and 6.5, buffer/DMSO 1:1, 37 °C): released immediately
